Consider 3 molecules from patent US20170000908A1, “A MICELLAR PARTICLE” (AGENCY FOR SCIENCE, TECHNOLOGY AND RESEARCH, priority 2013, published 2017).

Molecules are shown by their SMILES.

Data set [1] can be described thus: Photoluminescence lifetime by Time Correlated Single Photon Counting (TCSPC). To be noted: dye in THF; excited at 405 nm. Format: physicochemical. As for the experimental part:
The photoluminescence lifetimes of the Coumarin545T@SiO2 and DCJTB@SiO2 samples were measured using a Time Correlated Single Photon Counting (TCSPC) module (PicoQuant PicoHarp 300 of PicoQuant of Berlin, Germany). The Coumarin545T@SiO2 and DCJTB@SiO2 samples were excited by using 405 nm line of a picosecond pulsed laser diode (PicoQuant PDL 800-B). The photoluminescence was dispersed through a monochromator (Acton SpectroPro 2300i) and detected with a micro channel plate photomultiplier tube (MCP-PMT) detector (Hamamatsu R3809U-50).
FIG. 4 is a graph showing the time-resolved photoluminescence decay of Coumarin545T dissolved in THF and that when encapsulated inside the core of the nanocapsules. FIG. 5 is a graph showing the time-resolved photoluminescence decay of DCJTB dissolved in THF and that when encapsulated inside the core of the nanocapsules. […] Based on these figures, when compared to the photoluminescence behavior of the dye solutions (Coumarin545T or DCJTB) in their respective solvents, there is a significant red-shift in the emission peak for both of the silica nanocapsules, which should be ascribed to the π-π stacking of the dye molecules by encapsulation. The emission spectra of the nanocapsules are also broader than the dye solutions in their respective solvents. […]

Data set [2] is described as follows: UV-Vis and photoluminescent spectra (emission peak, fwhm). Format: physicochemical. To be noted: dye in THF. An excerpt: The UV-Vis and photoluminescent spectra of Coumarin545T@SiO2 are shown in FIG. 2 while those of DCJTB@SiO2 are shown in FIG. 3.
FIG. 4 is a graph showing the time-resolved photoluminescence decay of Coumarin545T dissolved in THF and that when encapsulated inside the core of the nanocapsules. FIG. 5 is a graph showing the time-resolved photoluminescence decay of DCJTB dissolved in THF and that when encapsulated inside the core of the nanocapsules. […] Based on these figures, when compared to the photoluminescence behavior of the dye solutions (Coumarin545T or DCJTB) in their respective solvents, there is a significant red-shift in the emission peak for both of the silica nanocapsules, which should be ascribed to the π-π stacking of the dye molecules by encapsulation. The emission spectra of the nanocapsules are also broader than the dye solutions in their respective solvents. The silica coating could lead to improvement in the photostability of the dye molecules by limiting their contact with the outside environment, especially soluble oxygen molecules.

Data set [3] can be described thus: Quantum yield measured against fluorescence standard solutions. Format: physicochemical. To be noted: dye in THF. As for the experimental part:
Quantum yield was measured with respect to the fluorescence standard solution, namely fluorescein (Ethanol; QY=0.79), and rhodamine B (Ethanol; QY=0.49). Fluorescein was used as a reference for Coumarin545T@SiO2, whereas rhodamine B was used for DCJTB@SiO2. The procedures involved diluting the fluorescent silica nanocapsules and the fluorescence standard solution with their respective solvent to have the same absorbance at excitation wavelength (460 nm for fluorescein; 490 nm for rhodamine B). Quantum yields for fluorescent silica nanocapsules were measured by dividing, the integrated emission area of their fluorescent spectrum against that of fluorecein or rhodamine B in Ethanol. […] In addition, the lifetime of Coumarin545T@SiO2 was determined to be 3.38 ns, while the lifetime of coumarin545T in THF was determined to be 2.86 ns. Similarly, the lifetime of DCJTB@SiO2 was determined to be 3.40 ns, while the lifetime of DCJTB in THF was determined to be 2.50 ns.

The conditions of data set [4]: Ethanol; cited from earlier work.

As to `CC1(C)CCN2CCC(C)(C)c3c2c1cc1cc(-c2nc4ccccc4s2)c(=O)oc31` [Coumarin 545T], the “Fluorescence Lifetime (τ)” value in data set [1] amounted to 2.86 ns. For the same molecule, in data set [2], the fwhm was determined as 35 nm and the λem was found to be 504 nm. For the same molecule, in data set [3], the “Quantum Yield (QY)” value came out at 0.99.

Consider `CC(C)(C)C1=CC(=C(C#N)C#N)C=C(/C=C/c2cc3c4c(c2)C(C)(C)CCN4CCC3(C)C)O1` [DCJTB], for which, in data set [1], the “Fluorescence Lifetime (τ)” value amounted to 2.50 ns. In data set [2], this molecule displayed a fwhm of 73 nm and a λem of 605 nm. In addition, in data set [3], the “Quantum Yield (QY)” value was 0.99.

As to `CCN(CC)c1ccc2c(-c3ccccc3C(=O)O)c3ccc(=[N+](CC)CC)cc-3oc2c1.[Cl-]` [rhodamine B], in data set [4], the “Quantum yield (QY) of fluorescence standard solution” value is recorded as 0.49.
